Assay results from patent US20260256922A1, “PRODRUGS USEFUL FOR REDUCING ANTHRACYCLINE CARDIOTOXICITY” (WAKE FOREST UNIVERSITY HEALTH SCIENCES, priority 2022, published 2026).

Legend:
H9C2 cardiomyoblasts [1] = conditions: H9C2, 10 and 20 μM, 24 or 48 h; difference not significant at 48 h
Protocol: Cytotoxicity of DOX and prodrugs in H9C2 cardiomyoblasts. Media from cells exposed for 24 or 48 h to 10 or 20 µM of c1, c2, DOX or vehicle (DMSO, final concentration 0.1% in all samples) was centrifuged to remove cells and cell debris, and supernatants were assessed spectrophotometrically by lactose dehydrogenase (LDH) assay to evaluate release into the media as a measure of cytotoxicity (n=6 or more). *, p<0.05; **, p<0.01; ***, p<0.001; ****, p<0.0001.
Cytotoxicity of c1, c2 and DOX was evaluated by measuring the release of lactate dehydrogenase (LDH) into the culture medium over time.
H9C2 and 4T1 cells were plated at a density of 10,000 per well in 96-well plates. Twenty-four h after plating, cells were treated with 10 or 20 µM DOX (from 20 mM stock dissolved in DMSO, for 0.1% final DMSO) and were incubated for 24 or 48 h. The extracellular medium was centrifuged at 12,000×g for 5 min to pellet cellular debris, and the supernatants were assessed for release of lactate dehydrogenase (LDH) using a colorimetric activity assay (Invitrogen) as directed and spectral detection (Benchmark or BioRad microplate reader). Values were used to determine % cytotoxicity as described in the kit, using treatment with lysis buffer to release all LDH into the medium (defining 100% release) or cells without treatment (to define 0% release).

Nrf2 = Nrf2 and HO-1 immunoblots in H9C2 cells; assay type: cell-based, rat; conditions: H9C2, relative to DMSO vehicle
Description: The bar graphs below represent the mean±SEM. Results were statistically different between c1 and DOX in both cases (p=0.002 and p=0.019), and more marginally so between c1 and DMSO (p=0.011 and p.=0.025), for Nrf2 and HO-1, respectively.

[2] = Time-dependent DOX release from prodrugs in presence of H2O2 (LCMS); assay type: physicochemical; conditions: prodrug 10 μM, H2O2 10 μM, ammonium bicarbonate buffer 0.1 M pH 7.4
Protocol: FIG. 1. Time-course for DOX release from prodrugs (10 μM) in ammonium bicarbonate buffer (0.1 M, pH 7.4) at room temperature and in the presence of H2O2 (10 μM). A calibration curve was used to determine the concentration of free DOX at each time point by LCMS. Plotted as the mean±standard error of the mean (SEM) from three independent experiments.
To confirm this reactivity, we incubated c1 (10 μM) with H2O2 (10 μM) at room temperature in ammonium bicarbonate buffer (0.1 M, pH 7.4). At various time points, an aliquot was removed and analyzed by LCMS. Using a calibration curve, we determined the percentage of released DOX over the course of two hours. […] For comparison, we also assessed the reactivity of c2 towards the same concentration of peroxides. Like c1, c2 also functioned as an H2O2-activated DOX prodrug, but with faster kinetics, as quantitative release of free DOX was realized within 60 min.
A stock solution of c1 (or c2, 10 mM) in DMSO and H2O2 (10 mM) in ammonium bicarbonate buffer (0.1M, pH 7.4) were prepared immediately prior to use. […] At various time points (0 min, 10 min, 35 min, 60 min, 80 min, 100 min, 120 min), a 1 mL (inject volume 60 μL) aliquot was removed and analyzed by LC-MS (using a C18 analytical column and eluting at 0.4 mL/min with a linear gradient (20-90% v/v) MeOH/H2O (0-2 min), followed by 90% v/v MeOH/H2O (2-19 min)). […]

caspase-3 = assay: Caspase-3 cleavage immunoblot in H9C2 cells; conditions: H9C2, 10 or 20 μM, 24 h
Protocol: FIG. 6. […] H9C2 cells in culture were treated for 24 hr with c1, c2, DOX or vehicle (DMSO), then harvested into lysis buffer and immunoblotted for caspase-3. Data analyzed by ImageJ were used to assess the percent of the two bands present as the lower band.
We next evaluated apoptotic signaling through caspase-3 cleavage at 24 h to compare the experimental compounds.
To evaluate levels of caspase cleavage (using an antibody recognizing both cleaved and uncleaved, Cell Signaling, cat #9662), Nrf2 (antibody from Thermo Fisher, cat #PA5-27882), and HO-1 (antibody from Proteintech, cat #10701-1-AP), H9C2 cells were plated at a density of 450,000 per well in a 24-well plate, then treated 24 h later with 10 or 20 µM DOX and incubated another 24 h before harvesting. For some samples, 100 mM hydroxocobalamin (HO-Cbl) was added 5 min before drug treatment. Cells were harvested by removing media (and recovering any non-adherent cells by centrifugation for 5 min at 10,600×g, discarding the supernatant), and combining that with the 120 μL of lysis buffer added to each well. Lysis buffer [50 mM Tris-HCl at pH 8.0, with 100 mM NaCl, 100 µM diethylene triamine pentaacetic acid (DTPA), 20 mM β-glycerophosphate, 0.1% SDS, 0.5% Na Desoxycholate, and 0.5% Triton-X-100] was prepared by freshly adding protease and phosphatase inhibitors before use (1 mM PMSF, 10 μg/mL aprotinin, 1 mM Na3VO4, 10 mM NaF and 10 μg/mL leupeptin). Samples were further incubated on ice for 30 min, then centrifuged at high speed (20,800×g for 10 min) to remove cell debris, and supernatants were mixed with 5×SDS protein sample buffer for Western blot analysis following resolution of 40 μg per sample on 10% SDS-polyacrylamide gels. Protein concentrations of supernatants were determined using a BCA assay (Pierce). Antibodies were used at dilutions of 1:1000 (for HO-1 and caspase-3) or 1:3000 (for Nrf2).

H9C2 cardiomyoblasts [3] = assay: Uptake into H9C2 cardiomyoblasts by live-cell confocal microscopy; assay type: cell-based, rat; conditions: imaging over 18 h
Protocol: FIG. 4. Uptake of DOX and prodrugs c1 and c2 by H9C2 cardiomyoblasts. H9C2 cells cultures grown overnight on chambered coverslips in media with 10% serum were switched to Fluorobrite DMEM imaging media supplemented with 5% serum and prepared for live-cell imaging on a Zeiss LSM 880 confocal microscope, then 10 µM of c1, c2, or DOX was added and images were taken every 10 min (averaged every 30 min) for 18 h. Approximately 20 cells present in each field of view were averaged for each sample and time point; normalized and averaged data from two replicates each±SEM were included for c1 and DOX. An earlier independent trial yielded very similar results (Fig. S1).
Uptake of DOX and prodrugs into H9C2 cardiomyoblasts. Before comparing the biological effects of treatments by DOX and prodrugs, it was important to know their time dependence of accumulation into the H9C2 cardiomyoblasts under investigation. For this, confocal microscopy of live cells in culture was used to track in real time the accumulation of the fluorescent molecules into the cells, allowing direct comparisons between c1, c2 and Dox. […] Thus, any biological effects observed using c1 rather than DOX will not be due to limited cellular uptake.
To evaluate drug uptake, H9C2 cells were plated at a density of 20,000 per well on 24 well #1.5 polymer chambered coverslips (Ibidi) in media including 10% FBS and allowed to adhere for ~20 h. Prior to imaging analysis, the media was replaced with Fluorobrite DMEM imaging media (Gibco) supplemented with 5% FBS. To 1 mL of media in each well was added either vehicle (DMSO), or a 20 mM stock solution of c1, c2, or DOX to give final concentrations of 10 or 20 µM drug and 0.1% DMSO. […] DOX and the prodrugs were detected with excitation by a 458 nm laser at 0.3% and emission from 535-648 nm.
Each position consisted of a 3 slice z-stack that was compressed with a maximum intensity projection for analysis. […] The mean intensity for both channels was calculated, normalized, and then averaged to 30 min time points.

Row | SMILES | cytotoxicity (LDH release) (H9C2 cardiomyoblasts [1]) | HO-1 expression (immunoblot) (Nrf2) | time to quantitative release of free DOX [2] [min] | caspase-3 cleavage (caspase-3) | accumulation in cells compared with DOX (H9C2 cardiomyoblasts [3])
1 | COc1cccc2c1C(=O)c1c(O)c3c(c(O)c1C2=O)C[C@@](O)(C(=O)CO)C[C@@H]3O[C@H]1C[C@H](N)[C@H](O)[C@H](C)O1 [DOX, Doxorubicin, reference compound] | more toxic than c1 | completely suppressed both |  |  | 
2 | COc1cccc2c1C(=O)c1c(O)c3c(c(O)c1C2=O)C[C@@](O)(C(=O)CO)C[C@@H]3O[C@H]1C[C@H](NC(=O)OCc2ccc(B3OC(C)(C)C(C)(C)O3)cc2)[C@H](O)[C@H](C)O1 [c2] | intermediate toxicity but more similar to DOX than c1 |  | ≤ 60 | neither c1 nor c2 at either 10 or 20 UM caused notable caspase-3 cleavage | as slow as or slower than Dox
